Read-outs that look alike come from different tables or passages of the source.
Experiments:
[1] = tested on: HCT-116 cells (human colon carcinoma cell line); experiment: MTT cytotoxicity assay, HCT-116; format: cell-based
Text: Colorectal carcinoma cells (HCT-116), chronic myelogenous leukemia (K562), and acute promyelocytic leukemia (HL-60) were generously provided by Dr. Manoel de Moraes (Federal University of Ceará, Fortaleza, Brazil) and cultured in Roswell Park Memorial Institute 1640 (RPMI 1640; Sigma Aldrich, St. Louis, MO, USA) medium supplemented with 10% fetal bovine serum (GIBCO, Grand Island, NY, USA) and 1% penicillin–streptomycin (Sigma Aldrich, St. Louis, MO, USA). Human keratinocyte cells (HaCaT; provided by Dr. Jaciana Aguiar from Federal University of Pernambuco, Recife, Pernambuco, Brazil), cervical cancer cells (HeLa; purchased from the cell bank of Rio de Janeiro, Rio de Janeiro, Brazil), and breast cancer cells (MCF-7; provided by Dr. João Ernesto de Carvalho from University of Campinas, Campinas, São Paulo, Brazil) were grown and maintained in Dulbecco’s Modified Eagle’s Medium (DMEM; Sigma Aldrich, St. Louis, MO, USA) supplemented with 10% fetal bovine serum (GIBCO, Grand Island, NY, USA) and 1% penicillin–streptomycin (Sigma Aldrich, St. Louis, MO, USA). All cell types were maintained in 5% CO2 at 37 °C with humidity.
MTT (3-(4,5-dimethylthiazol-2-yl)-2,5-diphenyltetrazolium bromide) reduction assay was used to evaluate the cytotoxicity of ACS03 and its precursors (2-amino-5,6,7,8-tetrahydro-4H-cyclohepta[b]thiophene-3-carbonitrile and 6,9-dichloro-2-methoxyacridine) against tumor and non-tumor cell lines and PBMC. For the MTT assay, cell lines (3 × 10^5 cells/mL) and PBMC (1 × 10^6 cells/mL) were seeded on 96-well plates and cultured for 24 h. ACS03 (3.125–200 µM) was added to the cell cultures and incubated for 72 h. After incubation, 110 µL of the supernatant was removed and 10 μL of the MTT reagent (Sigma Aldrich, St. Louis, MO, USA) was added to each well, and the plates were then incubated at 37 °C. Following 3 h incubation, 100 μL of sodium dodecyl sulfate (SDS) was added to dissolve the formazan crystals produced and left overnight to incubate. The amount of formazan is proportional to the number of viable cells present. The optical density was measured using a microplate spectrophotometer reader (Microplate reader BioTek Instruments, Sinergy HT, Winooski, VT, USA) at λ = 570 nm and used to calculate the IC50 (half maximal inhibitory concentration).

[2] = tested on: HeLa (human cervical cancer cell line); experiment: MTT cytotoxicity assay, HeLa; format: cell-based; details: 72 h
Text: (§1) Colorectal carcinoma cells (HCT-116), chronic myelogenous leukemia (K562), and acute promyelocytic leukemia (HL-60) were generously provided by Dr. Manoel de Moraes (Federal University of Ceará, Fortaleza, Brazil) and cultured in Roswell Park Memorial Institute 1640 (RPMI 1640; Sigma Aldrich, St. Louis, MO, USA) medium supplemented with 10% fetal bovine serum (GIBCO, Grand Island, NY, USA) and 1% penicillin–streptomycin (Sigma Aldrich, St. Louis, MO, USA). […]
(§2) MTT (3-(4,5-dimethylthiazol-2-yl)-2,5-diphenyltetrazolium bromide) reduction assay was used to evaluate the cytotoxicity of ACS03 and its precursors (2-amino-5,6,7,8-tetrahydro-4H-cyclohepta[b]thiophene-3-carbonitrile and 6,9-dichloro-2-methoxyacridine) against tumor and non-tumor cell lines and PBMC. […] The optical density was measured using a microplate spectrophotometer reader (Microplate reader BioTek Instruments, Sinergy HT, Winooski, VT, USA) at λ = 570 nm and used to calculate the IC50 (half maximal inhibitory concentration).

[3] = tested on: MCF-7 (breast cancer cell line); experiment: MTT cytotoxicity assay, MCF-7; format: cell-based; details: Homo sapiens, MCF7; MCF-7, MTT, 72 h
Text: as §1, §2

[4] = tested on: K562 (chronic myeloid leukemic cell line); experiment: MTT cytotoxicity assay, K562; format: cell-based; details: Homo sapiens, 72 h
Text: as §1, §2

[5] = tested on: HL-60 (human promyelocytic leukemia cell line); experiment: MTT cytotoxicity assay, HL-60; format: cell-based; details: HL-60, MTT, 72 h
Text: as §1, §2

[6] = tested on: HaCat (Human immortalized keratinocytes cell line); experiment: MTT cytotoxicity assay, HaCat non-tumor cells; format: cell-based; details: 72 h
Text: as §1, §2

[7] = tested on: peripheral blood mononuclear cells (PBMC); experiment: MTT cytotoxicity assay, PBMC; format: cell-based; details: Homo sapiens, 72 h
Description: Heparinized blood was collected from healthy donors, and the PBMC were isolated by a standard method of density-gradient centrifugation using Ficoll-Histopaque (Sigma Aldrich, St. Louis, MO, USA). PBMC were cultivated in RPMI-1640 medium supplemented with 10% fetal bovine serum, 1% penicillin–streptomycin, and 2% phytohaemagglutinin. Cells were kept at 37 °C with 5% CO2 for 24 h before the start of the experiment. This study was approved by the Ethics Committee of the Human Health Sciences Center Research (CCS), UFPB (CAAE: 22986519.0.0000.5188), Brazil.
as §2, with “PBMC. For the MTT assay, cell lines (3 × 10^5 cells/mL) and PBMC (1 × 10^6 cells/mL) were seeded on 96-well plates and cultured for 24 h. ACS03 (3.125–200 µM) was added to the cell cultures and incubated for 72 h.” for “PBMC.”

[8] = Fish embryo acute toxicity (FET) test; design: species or system zebrafish (Danio rerio); details: wild-type, in vivo, zebrafish embryos, 96 h exposure; for EC50 at 96 h: zebrafish
Description: The zebrafish (Danio rerio) embryos were provided by the zebrafish facility established at Department of Molecular Biology, Federal University of Paraíba (João Pessoa, Brazil). To obtain embryos, an egg trap was placed overnight in a tank containing male and female specimens (1:1 ratio) of a wild-type strain one day prior to testing. One hour after the beginning of the light cycle (14 h light/10 h dark), eggs were collected and rinsed with E3 medium (5 mM NaCl, 0.17 mM KCl, 0.33 mM CaCl2, and 0.33 mM MgSO4). Viable fertilized eggs were selected using a stereomicroscope (80× magnification), and embryotoxicity analysis was carried out. All experiments were approved by the Committee on Ethical Use of Animals in Research (CEUA) of Federal University of Paraíba, Brazil, certified by number 5900310718/2018.
The fish embryo acute toxicity (FET) test was conducted with ACS03 according to OECD’s guideline no. 236, with slight modifications. Zebrafish embryos of up to 3 hpf (hours post fertilization) of age were initially exposed to 250–15.62 µM. For each concentration tested, we prepared a 96-well plate containing 20 fertilized eggs (1 embryo per well) exposed to the test sample and 4 embryos exposed only to E3 medium (internal controls). The exposure was performed for 96 h, and the embryos were analyzed every 24 h for the apical endpoints: egg coagulation; lack of somite formation; lack of detachment of the tail-bud from the yolk sac; and lack of heartbeat. In the presence of any of these endpoints, the embryo/larva was considered dead. The number of deaths was used to calculate the LC50 (median lethal concentration). Sublethal effects were also recorded in order to obtain the EC50 (median effect concentration), them being spinal deformation, reduction in larval length, and pericardial edema. The exposures were under static conditions (without renovation of test sample or E3 medium). Observations were performed in a stereomicroscope (80× magnification) and photographed (Zeiss). After 96 h, surviving larvae were euthanized with eugenol and properly discarded.
The results are expressed as the mean ± SEM. Statistical analysis of data was performed using analysis of variance (ANOVA), followed by Tukey’s test (p < 0.05). For zebrafish embryo cytotoxicity, the median lethal concentration (LC50) values and the median effect concentration (EC50) values were calculated by probit regression analysis.

[9] = tested on: LDH (Lactate dehydrogenase); experiment: LDH activity in zebrafish larvae; format: in vivo; details: 96 h, control 316.6 ± 1.28
Description: (§3) The FET test was repeated for ACS03 under the same conditions described above, but this time the embryos were independently exposed to three concentrations (10, 20, and 40 µM). At the end of the exposure period (96 h), the larvae were quickly frozen in a ratio of 1 larva per 100 µL of 0.1 M sodium phosphate buffer, pH 7.4.
(§4) Larval groups from each of the three tested concentrations and a negative control group (exposed to E3 medium only) were macerated using 1:9 (w/v) cold 0.9% NaCl solution. The homogenates were centrifuged at 10,000× g for 10 min at 4 °C, and the resulting supernatants were used for the measurement of soluble protein content and enzyme activity. The activities of acetylcholinesterase (AChE), glutathione S-transferase (GST), and lactate dehydrogenase (LDH) were measured according to Domingues et al. (2010). Tests were done in quadruplicate for each enzyme.

[10] = tested on: GST (Glutathione S-transferase); experiment: GST activity in zebrafish larvae; format: in vivo, zebrafish (Danio rerio); details: 96 h, control 31.8 ± 0.05
Description: as §3, §4

[11] = tested on: AChE (Acetylcholinesterase); experiment: AChE activity in zebrafish larvae; format: in vivo, zebrafish (Danio rerio); details: 96 h, control 66.35 ± 0.04
Description: as §3, §4

[12] = Acute preclinical toxicity in mice (OECD 423); format: in vivo, mice (Mus musculus); details: female, Swiss albino, mouse, in vivo, ip, estimated, OECD 423, read-out: LD50 (lethal dose 50%)
Description: (§5) Female Swiss albino mice (Mus musculus) weighing between 28 and 32 g, with an approximate age of 60 days and obtained from the Dr. Thomas George Bioterium (Research Institute in Drugs and Medicines/Federal University of Paraíba, Paraíba, Brazil) were used. The animals were grouped in polyethylene cages containing six animals, with free access to food (Purina® feed pellets, St. Louis, MO, USA) and water. The animals were kept under controlled conditions (21 ± 1 °C, 12 h/12 h off light/dark cycle). All experiments were approved by the Committee on Ethical Use of Animals in Research (CEUA) of Federal University of Paraíba, Brazil, certified by number 093/2017.
(§6) The acute toxicity test in mice was performed according to the Guideline for Testing of Chemicals no. 423 of the Organization for Economic Co-operation and Development (OECD). Mice were divided into different groups (n = 3 females/group). The control group received vehicle alone (12% (v/v) Tween 80 in saline), and ACS03 was tested in single doses of 300 or 2000 mg/kg, intraperitoneally (i.p.). The dose responsible for the death of 50% of the experimental animals (LD50) was estimated.

Swiss albino mice = experiment: Acute preclinical toxicity in mice (OECD 423); format: in vivo, mice (Mus musculus)
Description: as §5, §6

[13] = tested on: Ehrlich ascites carcinoma; experiment: In vivo antitumor activity, Ehrlich ascites carcinoma model; design: species or system mice (Mus musculus); details: 12.5 mg/kg i.p., seven days
Text: Ehrlich ascites carcinoma was generously provided by Pharmacology and Toxicology Division, CPQBA, UNICAMP (Paulínia, São Paulo, Brazil). The cells were maintained in the peritoneal cavities of Swiss mice in the Dr. Thomas George Bioterium (Research Institute in Drugs and Medicines/Federal University of Paraíba, João Pessoa, Brazil).
as §5
Mice were inoculated with 4 × 10^6 cells/mL of Ehrlich tumor cells (0.5 mL/animal), intraperitoneally (i.p.). After 24 h, mice were divided into […] (n = 6/group) and treated with vehicle alone (12% (v/v) Tween 80 in saline), 5-FU (standard drug, 25 mg/kg), or ACS03 (3.125, 6.25, 12.5, or 25 mg/kg) for seven consecutive days (i.p.). […]

nitrite (nitric oxide) = experiment: Nitrite levels in ascitic fluid, Ehrlich ascites carcinoma model (Griess); format: in vivo, mice (Mus musculus); details: peritoneal fluid, 12.5 mg/kg; control 36.09 ± 0.72 µM
Description: The nitrite concentration in the ascitic fluid was measured using Griess reagent. For this, the peritoneal fluid of control and treated animals (12.5 mg/kg ACS03 and 25 mg/kg 5-FU) was used. The optical density was measured using a microplate spectrophotometer reader (Microplate reader BioTek Instruments, Sinergy HT, Winooski, VT, USA) at λ = 560 nm. Concentrations of nitrite were calculated from a standard curve previously established with known molar concentrations of sodium nitrite. The tests were done in quadruplicate and the values expressed in µM [51].

Leishmania = tested on: Leishmania; design: method as in PMID 29415325; details: cited from earlier work
erythrocytes = tested on: erythrocytes; design: method as in PMID 29415325; details: cited from earlier work
[14] = HCT-116, MTT, 72 h, read-out: IC50

In the case of N#Cc1c(N)sc2c1CCCCC2 [2-amino-thiophene, 2-amino-5,6,7,8-tetrahydro-4H-cyclohepta[b]thiophene-3-carbonitrile], the IC50 [1, 14] is reported as > 1000 µM.

With COc1ccc2nc3cc(Cl)ccc3c(Cl)c2c1 [6,9-diclhoro-2-methoxi-acridine, 6,9-dichloro-2-methoxyacridine] the IC50 [1, 14] was 202.3 ± 1.19 µM.

With COc1ccc2nc3cc(Cl)ccc3c(Nc3sc4c(c3C#N)CCCCC4)c2c1 [ACS03, 2-((6-Chloro-2-methoxyacridin-9-yl)amino)-5,6,7,8-tetrahydro-4H-cyclohepta[b]-thiophene-3-carbonitrile] the IC50 ([1]; HCT-116, 72 h) was 23.1 ± 1.03 µM, the IC50 [2] was > 50 µM and the IC50 [3] was > 50 µM. For the same compound, the IC50 [4] was > 50 µM, the IC50 [5] was > 50 µM and the IC50 [6] was 62.2 ± 1.15 µM. The IC50 [7] was 115 ± 5.82 µM, the LC50 at 96 h ([8]; read-out: LC50 (median lethal concentration)) was > 1000 µM and the EC50 at 96 h ([8]; read-out: EC50 pericardial edema) was > 1000 µM. The EC50 at 96 h ([8]; read-out: EC50 reduction in larval length) was 126 µM, the EC50 at 96 h ([8]; read-out: EC50 spinal deformation) was 172 µM and the LDH activity ([9]; 20 µM) was 378.44 ± 0.58. It also gave an LDH activity ([9]; 40 µM) of 426.74 ± 0.79, a GST activity ([10]; 10 µM) of 57.96 ± 0.23 and a GST activity ([10]; 20 µM) of 75.83 ± 0.13. The GST activity ([10]; 40 µM) was 86.14 ± 0.21, the AChE activity ([11]; 10 µM) was 85.67 ± 0.11 and the AChE activity ([11]; 20 µM) was 94.59 ± 0.20. For the same compound, the AChE activity ([11]; 40 µM) was 94.54 ± 0.10, the LD50 [12] was > 5000 mg/kg and the “death in acute toxicity assay” value (Swiss albino mice; single dose 300 mg/kg i.p., test repeated) was “no death”. The “death in acute toxicity assay” value (Swiss albino mice; single dose 2000 mg/kg i.p., carried out twice) was “did not induce death”, the cell viability ([13]; trypan blue, control 115.5 ± 23.97) was 4.12 ± 1.28 × 10^6 cells/mL and the tumor volume ([13]; control 6.93 ± 0.79 mL) was 0.0 mL. For the same compound, the nitrite concentration (nitrite (nitric oxide)) was 188.5 ± 7.98 µM, the antileishmanial activity (Leishmania) was “showed antileishmanial activity” and the cytotoxicity against erythrocytes (erythrocytes) was “no cytotoxicity”.

— article PMC6983054, “Toxicity and Antitumor Activity of a Thiophene–Acridine Hybrid” (Molecules, 2019)
